The text below walks through data of ChEMBL document CHEMBL3407493, “Medicinal uses, phytochemistry and pharmacology of family Sterculiaceae: a review” (Eur J Med Chem, 2015).

The structures appear in SMILES notation. ≈ marks a conversion by molar mass, not a printed value.

The test system of one series is SK-MEL-28. In words: Cytotoxicity against human SK-MEL-28 cells assessed as growth inhibition. The format is functional, cell-based.
Series [1] in a line: Toxicity in Artemia salina Linn. It counts as organism-based. The conditions noted are these: in vivo.
Series [2] can be described thus: Antibacterial activity against Salmonella setubal ATCC 19196. The format is functional, Salmonella enterica subsp. enterica serovar Setubal. The conditions noted are these: Salmonella enterica.
The next series concerns Klebsiella pneumoniae. In words: Antibacterial activity against Klebsiella pneumoniae ATCC 10031. It counts as functional.
Another series has as its system Escherichia coli. In words: Antibacterial activity against Escherichia coli ATCC 11103. The format is functional.
The nature of series [3]: Antioxidant activity assessed as inhibition of linoleic acid autooxidation. The format is physicochemical.
The nature of series [4]: Antioxidant activity assessed as DPPH radical scavenging activity. It counts as physicochemical. A general note: DPPH is a stable violet radical that fades when it is reduced.
Another series deals with Liver microsome. In words: Antioxidant activity in rat liver microsomes assessed as inhibition of NADPH-dependent lipid peroxidation. The format is functional. (Liver microsomes are a subcellular fraction often used to study metabolism.)
The nature of series [5]: Cytotoxicity against human Bel7402 cells assessed as growth inhibition. The format is functional, cell-based. The conditions noted are these: Bel-7402.

Take `C=C(C)[C@@H]1CC[C@]2(C(=O)O)CC[C@]3(C)[C@H](CC[C@@H]4[C@@]5(C)CC[C@H](OC(=O)/C=C/c6ccc(O)c(O)c6)C(C)(C)[C@@H]5CC[C@]43C)[C@@H]12`: in the series on SK-MEL-28, the IC50 was determined as 81700 nM.

`CC1=C2OC[C@@H](C)c3c(O)cc(C)c(c32)C(=O)C1=O` came in with a 50% lethal concentration (LC50) in [1] of 50.7 µg/mL (≈ 196 µM).

For the compound `CC(C)CC(C(=O)NC1C(=O)NC(Cc2ccccc2)C(=O)N/C=C\c2ccc(cc2)OC1C(C)C)N(C)C` (configuration not stated), the MIC in series [2] turned out to be 50 µg/mL (≈ 93.5 µM); against Klebsiella pneumoniae, 25 µg/mL (≈ 46.8 µM); against Escherichia coli it was 25 µg/mL (≈ 46.8 µM).

The compound `COc1cc(C)c2oc(=O)c(C)cc2c1C(C)C` came in with an LC50 in series [1] of 24.2 µg/mL (≈ 98.2 µM).

The compound `Cc1cc2c(C(C)C)c(O)cc(C)c2oc1=O` gave a median lethal concentration (LC50) in [1] of 0.61 µg/mL (≈ 2.63 µM). Against the preceding compound, the LC50 is about 40-fold lower.

The compound `Cc1c2c3c(ccc(C)c3oc1=O)C(C)CO2` (configuration not stated) registered an LC50 in series [1] of 188 µg/mL (≈ 816 µM).

As to `Oc1cc(O)c2c(c1)O[C@H](c1ccc(O)c(O)c1)[C@H](O)[C@H]2c1c(O)cc(O)c2c1O[C@H](c1ccc(O)c(O)c1)[C@H](O)[C@H]2c1c(O)cc(O)c2c1O[C@H](c1ccc(O)c(O)c1)[C@H](O)[C@H]2c1c(O)cc(O)c2c1O[C@H](c1ccc(O)c(O)c1)[C@H](O)C2`, the IC50 in series [3] came to 2.7 µg/mL (≈ 2.34 µM); in series [4], 2.1 µg/mL (≈ 1.82 µM); in the series with Liver microsome, 25 µg/mL (≈ 21.6 µM).

With `OC[C@H]1O[C@@H](O[C@H]2[C@H]3c4c(O)cc(O)cc4O[C@]2(c2ccc(O)c(O)c2)Oc2cc(O)c4c(c23)O[C@H](c2ccc(O)c(O)c2)[C@H](O)C4)[C@H](O)[C@@H](O)[C@H]1O`, the IC50 in series [3] worked out at 2.5 µg/mL (≈ 3.38 µM); in [4], 3.9 µg/mL (≈ 5.28 µM); in the series on Liver microsome, 18 µg/mL (≈ 24.4 µM).

As for `Oc1cc(O)c2c(c1)O[C@]1(c3ccc(O)c(O)c3)Oc3cc(O)c4c(c3[C@H]2[C@@H]1O[C@@H]1OC[C@@H](O)[C@H](O)[C@H]1O)O[C@H](c1ccc(O)c(O)c1)[C@H](O)C4`, the figures for the half-inhibitory concentration (IC50) (in [3]; in [4]; in the series on Liver microsome) were 2.2 µg/mL (≈ 3.1 µM), 3.9 µg/mL (≈ 5.5 µM) and 21 µg/mL (≈ 29.6 µM), respectively.

In the case of `OC[C@H]1O[C@@H](O[C@@H]2[C@@H]3c4c(O)cc(O)cc4O[C@]2(c2ccc(O)c(O)c2)Oc2cc(O)c4c(c23)O[C@H](c2ccc(O)c(O)c2)[C@H](O)[C@H]4c2c(O)cc(O)c3c2O[C@H](c2ccc(O)c(O)c2)[C@H](O)C3)[C@H](O)[C@@H](O)[C@H]1O`, the half-maximal inhibitory concentration (IC50) in series [3] came to 2 µg/mL (≈ 1.95 µM); in series [4], 2.4 µg/mL (≈ 2.34 µM); in the series on Liver microsome, 36 µg/mL (≈ 35.1 µM).

In the case of `Oc1cc(O)c2c(c1)O[C@]1(c3ccc(O)c(O)c3)Oc3cc(O)c4c(c3[C@@H]2[C@H]1O[C@@H]1OC[C@@H](O)[C@H](O)[C@H]1O)O[C@H](c1ccc(O)c(O)c1)[C@H](O)[C@H]4c1c(O)cc(O)c2c1O[C@H](c1ccc(O)c(O)c1)[C@H](O)C2`, the 50% inhibitory concentration (IC50) is 1.9 µg/mL (≈ 1.91 µM) in [3], 2.3 µg/mL (≈ 2.31 µM) in [4] and 28 µg/mL (≈ 28.1 µM) with Liver microsome.

`C=C(C)[C@@H]1CC[C@]2(C(=O)O)CC[C@]3(COC(=O)c4ccccc4)[C@H](CC[C@@H]4[C@@]5(C)CC[C@H](OC(C)=O)C(C)(C)[C@@H]5CC[C@]43C)[C@@H]12`: in the series on SK-MEL-28, the IC50 was found to be 32000 nM.

In the case of `Oc1cc(O)c2c(c1)O[C@H](c1ccc(O)c(O)c1)[C@H](O)[C@H]2c1c(O)cc2c(c1O)C[C@@H](O)[C@@H](c1ccc(O)c(O)c1)O2`, the half-inhibitory concentration (IC50) was found to be 2.3 µg/mL (≈ 3.98 µM) in series [3], 2.3 µg/mL (≈ 3.98 µM) in series [4] and 12 µg/mL (≈ 20.7 µM) in the series on Liver microsome.

For the compound `CC1=Cc2c(C(C)C)ccc(C)c2C(=O)C1=O`, the LC50 in series [1] is 2.08 µg/mL (≈ 9.11 µM).

`Cc1c(C)c2c(c(C)c1O)CCC(C)(CCCC(C)CCCC(C)CCCC(C)C)O2` (racemic) [alpha-TOCHOPHEROL]: the results for the IC50 (in [3]; in [4]; in the series on Liver microsome) were 7.7 µg/mL (≈ 17.9 µM), 4.6 µg/mL (≈ 10.7 µM) and 5.6 µg/mL (≈ 13 µM), respectively.

Consider `Oc1cc(O)c2c(c1)O[C@H](c1ccc(O)c(O)c1)[C@H](O)C2` [(-)-EPICATECHIN], for which the half-inhibitory concentration (IC50) in series [3] was found to be 0.62 µg/mL (≈ 2.14 µM); in [4], 0.62 µg/mL (≈ 2.14 µM); in the series with Liver microsome it was 29 µg/mL (≈ 99.9 µM).

For `O=C(N[C@H](CO)[C@H](O)c1ccc([N+](=O)[O-])cc1)C(Cl)Cl` [CHLORAMPHENICOL], the MIC in series [2] is 3.12 µg/mL (≈ 9.66 µM); with Klebsiella pneumoniae, 1.56 µg/mL (≈ 4.83 µM); with Escherichia coli, 3.12 µg/mL (≈ 9.66 µM).

For the compound `CC(C)(O)/C=C/C(=O)[C@](C)(O)[C@H]1[C@H](O)C[C@@]2(C)[C@@H]3CC=C4[C@@H](C[C@H](O)C(=O)C4(C)C)[C@]3(C)C(=O)C[C@]12C` [CUCURBITACIN D], the values for the IC50 (in the series on SK-MEL-28; in series [5]) were 1220 nM and 1410 nM, respectively.

For the compound `CC1(C)C(=O)[C@@H](O)C[C@@H]2C1=CC[C@@H]1[C@@]2(C)C(=O)C[C@]2(C)[C@@H]([C@@](C)(O)C(=O)CC(O)C(C)(C)O)[C@H](O)C[C@@]12C` (some centres not stated) [CUCURBITACIN G], the values for the 50% inhibitory concentration (IC50) (in the series with SK-MEL-28; in series [5]) were 1280 nM and 1370 nM, respectively.

As to `CC1=Cc2c(c(C)cc(O)c2C(C)C)C(=O)C1=O` [MANSONONE G], the median lethal concentration (LC50) in series [1] came out at 64.4 µg/mL (≈ 263 µM).

Consider `Oc1cc(O)c2c(c1)O[C@H](c1ccc(O)c(O)c1)[C@H](O)[C@H]2c1c(O)cc(O)c2c1O[C@H](c1ccc(O)c(O)c1)[C@H](O)C2` [PROCYANIDIN B2], for which the IC50 in [4] amounted to 1.4 µg/mL (≈ 2.42 µM); in the series with Liver microsome, 12 µg/mL (≈ 20.7 µM).

For `Oc1cc(O)c2c(c1)O[C@H](c1ccc(O)c(O)c1)[C@H](O)[C@H]2c1c(O)cc(O)c2c1O[C@H](c1ccc(O)c(O)c1)[C@H](O)[C@H]2c1c(O)cc(O)c2c1O[C@H](c1ccc(O)c(O)c1)[C@H](O)C2` [PROCYANIDIN C1], the figures for the IC50 (in [3]; in series [4]; with Liver microsome) were 5.3 µg/mL (≈ 6.11 µM), 6.2 µg/mL (≈ 7.15 µM) and 68 µg/mL (≈ 78.5 µM), respectively.

One may read the IC50 as the concentration that gives 50% inhibition. A word on the LC50: it is the concentration that kills 50% of the test population. A word on the MIC: it is the least concentration at which growth counts as inhibited. High values mean a need for much substance, low ones inhibition by little substance.
